According to ChEMBL document CHEMBL1201862, “PubChem BioAssay data set” (2004):
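Dose response: 5 concentrations. Exposure: 48 h. Format: 96-well plates. Endpoint: linear interpolation; highest concentration if not reached. GI50 marks 50% less growth.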 Active and inactive are the calls of the source. Rule as the data show it: active = GI50 up to about 1.1 µM and inactive = higher.

Key:
Assay in all cases: growth of human tumour cells (NCI), 48 h
CCRF-CEM = tested on: CCRF-CEM
BT-549 = tested on: BT-549
COLO 205 = tested on: COLO 205
NCI-H522 = tested on: NCI-H522
HOP-62 = tested on: HOP-62
SN12C = tested on: SN12C
SF-268 = tested on: SF-268
EKVX = tested on: EKVX
HCT-116 = tested on: HCT-116
UO-31 = tested on: UO-31
A549 = tested on: A549
T47D = tested on: T47D
OVCAR-5 = tested on: OVCAR-5
NCI/ADR-RES = tested on: NCI/ADR-RES
UACC-62 = tested on: UACC-62
MOLT-4 = tested on: MOLT-4
HOP-92 = tested on: HOP-92

Measured: GI50

O=C(Nc1cccc2ccccc12)c1ccccc1
inactive: CCRF-CEM 27.1 µM | BT-549 > 100 µM | COLO 205 97.7 µM | NCI-H522 68.7 µM | HOP-62 81.3 µM | SN12C > 100 µM | SF-268 > 100 µM | EKVX > 100 µM | HCT-116 > 100 µM | UO-31 > 100 µM | A549 > 100 µM | T47D 11.5 µM | OVCAR-5 > 100 µM | NCI/ADR-RES > 100 µM | UACC-62 86.7 µM

O=C(CCC(=O)CC(O)(C(F)(F)F)C(F)(F)F)CC(O)(C(F)(F)F)C(F)(F)F
inactive: CCRF-CEM 42.1 µM | COLO 205 29.2 µM | HOP-62 52.5 µM | MOLT-4 41.3 µM | SN12C 42.6 µM | SF-268 71.6 µM | EKVX 35 µM | HCT-116 46.9 µM | UO-31 23.5 µM | A549 46.8 µM | T47D 29.2 µM | OVCAR-5 > 100 µM | HOP-92 20.7 µM | NCI/ADR-RES 61.7 µM | UACC-62 31.7 µM

OCC(O)C1OC2CC1Nc1ccccc1N2 (stereo not drawn)
inactive: CCRF-CEM 78.2 µM | COLO 205 > 100 µM | NCI-H522 > 100 µM | HOP-62 > 100 µM | MOLT-4 > 100 µM | SN12C > 100 µM | SF-268 > 100 µM | EKVX > 100 µM | HCT-116 > 100 µM | UO-31 > 100 µM | A549 > 100 µM | T47D > 100 µM | OVCAR-5 > 10 µM | HOP-92 > 100 µM | NCI/ADR-RES > 100 µM | UACC-62 > 100 µM

O=C1C=CC(=O)c2c1ccc1c3ccccc3n(Cc3ccc([N+](=O)[O-])cc3)c21
inactive: CCRF-CEM 10.9 µM | BT-549 > 100 µM | COLO 205 > 100 µM | NCI-H522 26.6 µM | HOP-62 > 100 µM | MOLT-4 20.3 µM | SN12C > 100 µM | SF-268 > 100 µM | EKVX > 100 µM | HCT-116 > 100 µM | UO-31 > 100 µM | A549 > 100 µM | T47D 52.8 µM | NCI/ADR-RES > 100 µM | UACC-62 > 100 µM

CC(=O)Oc1ccc2cc(Oc3ccccc3)c(=O)oc2c1
inactive: BT-549 39.9 µM | NCI-H522 30.5 µM | HOP-62 89.1 µM | SN12C > 100 µM | SF-268 > 100 µM | EKVX > 100 µM | HCT-116 > 100 µM | UO-31 61 µM | A549 48.2 µM | T47D 36.1 µM | OVCAR-5 > 100 µM | HOP-92 62.7 µM

CCc1ccc2c(c1)/C(=C1/Nc3ccccc3/C1=N/O)C(=O)N2
inactive: CCRF-CEM 3.21 µM | BT-549 8 µM | COLO 205 8.83 µM | NCI-H522 3.43 µM | HOP-62 10.6 µM | MOLT-4 4.3 µM | SN12C 5.61 µM | SF-268 8.22 µM | EKVX 5.19 µM | HCT-116 3.27 µM | UO-31 4.12 µM | A549 6.37 µM | T47D 6.28 µM | OVCAR-5 18.6 µM | NCI/ADR-RES 6.84 µM | UACC-62 11 µM

CCOC(=O)C1C(c2ccccc2)C2(C#N)C(=N)OC1(C)C2(C#N)C#N (stereo not drawn)
inactive: CCRF-CEM 23.5 µM | COLO 205 16.4 µM | MOLT-4 21.1 µM | SN12C > 10 µM | SF-268 22.4 µM | EKVX 21.1 µM | HCT-116 16.3 µM | UO-31 16.2 µM | A549 > 100 µM | T47D 32.1 µM | OVCAR-5 21.7 µM | HOP-92 20 µM | NCI/ADR-RES 27.1 µM | UACC-62 27 µM

Cn1nc2ccc3nccc(N4CCN(CCO)CC4)c3c2n1
inactive: CCRF-CEM 21.3 µM | BT-549 > 100 µM | COLO 205 > 100 µM | NCI-H522 > 100 µM | HOP-62 > 100 µM | MOLT-4 31.7 µM | SN12C > 100 µM | SF-268 > 100 µM | HCT-116 > 100 µM | UO-31 > 100 µM | A549 > 100 µM | T47D 42.3 µM | OVCAR-5 > 100 µM | UACC-62 > 100 µM

CC1Cc2cc(O)c(O)cc2-c2cc(O)c(O)cc2CC1C (stereo not drawn)
inactive: CCRF-CEM 14.1 µM | COLO 205 17.8 µM | NCI-H522 9.57 µM | HOP-62 17.9 µM | MOLT-4 14 µM | SN12C 20.9 µM | SF-268 25.9 µM | EKVX 18.5 µM | HCT-116 17.9 µM | UO-31 25.3 µM | A549 31.6 µM | T47D 25.2 µM | OVCAR-5 18.9 µM | HOP-92 15.3 µM | NCI/ADR-RES 12.6 µM | UACC-62 6.07 µM

Cc1cc(C#N)c[n+](C)c1
inactive: CCRF-CEM > 100 µM | BT-549 > 100 µM | COLO 205 > 100 µM | NCI-H522 > 100 µM | HOP-62 > 100 µM | MOLT-4 > 100 µM | SN12C > 100 µM | SF-268 > 100 µM | EKVX > 100 µM | HCT-116 > 100 µM | UO-31 > 100 µM | A549 > 100 µM | T47D > 100 µM | OVCAR-5 > 100 µM | NCI/ADR-RES > 100 µM | UACC-62 > 100 µM

CCOC(=O)NC(Nc1ccc(S(=O)(=O)Nc2nc(C)cc(C)n2)cc1)(C(=O)OCC)C(F)(F)F (stereo not drawn)
inactive: CCRF-CEM > 100 µM | BT-549 > 100 µM | COLO 205 > 100 µM | HOP-62 > 100 µM | MOLT-4 > 100 µM | SN12C > 100 µM | SF-268 > 100 µM | EKVX > 100 µM | HCT-116 > 100 µM | UO-31 > 100 µM | A549 > 100 µM | T47D > 100 µM | OVCAR-5 > 100 µM | HOP-92 > 100 µM | UACC-62 > 100 µM

C1=C[C@]2(CCC13OCCO3)COc1ccccc12
inactive: CCRF-CEM 33.3 µM | COLO 205 88.7 µM | HOP-62 41.2 µM | MOLT-4 20.2 µM | SN12C 74.8 µM | EKVX 66.1 µM | HCT-116 37.1 µM | UO-31 35.3 µM | A549 > 100 µM | T47D 47 µM | OVCAR-5 30.9 µM | HOP-92 46.7 µM | NCI/ADR-RES 27.4 µM | UACC-62 23.9 µM

O=C1CSC(=S)N1c1ccco1
inactive: CCRF-CEM > 100 µM | BT-549 16.3 µM | COLO 205 79.4 µM | NCI-H522 23.4 µM | HOP-62 > 100 µM | MOLT-4 > 100 µM | SN12C 57.1 µM | SF-268 > 100 µM | EKVX > 100 µM | HCT-116 60.4 µM | A549 > 100 µM | OVCAR-5 > 100 µM | HOP-92 > 100 µM | NCI/ADR-RES 37.9 µM

CCOC(=O)c1[nH]c2nc(SC)nc(NC)c2c1N
inactive: CCRF-CEM 60 µM | BT-549 > 100 µM | COLO 205 > 100 µM | NCI-H522 51.4 µM | HOP-62 > 100 µM | MOLT-4 68.2 µM | SN12C > 100 µM | SF-268 > 100 µM | HCT-116 > 100 µM | UO-31 > 100 µM | A549 > 100 µM | T47D 83.8 µM | OVCAR-5 > 100 µM | NCI/ADR-RES 59.6 µM | UACC-62 85.7 µM

CC(C)C1=CC23CCC4C(C)(C(=O)O)CCCC4(C)C2CC1C1C(=O)N(c2cccc(N4C(=O)C5C6CC7C8(C)CCCC(C)(C(=O)O)C8CCC7(C=C6C(C)C)C5C4=O)c2)C(=O)C13 (stereo not drawn)
inactive: CCRF-CEM 6.31 µM | COLO 205 10.6 µM | NCI-H522 14.2 µM | HOP-62 12 µM | MOLT-4 11.1 µM | SN12C 13.3 µM | SF-268 12 µM | EKVX 6.46 µM | HCT-116 9.57 µM | UO-31 14.8 µM | A549 14.7 µM | T47D 16.8 µM | OVCAR-5 7.74 µM | HOP-92 23.4 µM | UACC-62 16.5 µM

c1ccc2c(c1)OC(N1CCCC1)c1cnc(N3CCCC3)nc1-2 (stereo not drawn)
inactive: CCRF-CEM 23.8 µM | BT-549 21.2 µM | COLO 205 31.3 µM | HOP-62 68.2 µM | MOLT-4 24 µM | SN12C 45.2 µM | SF-268 29.4 µM | EKVX 19.4 µM | HCT-116 39.2 µM | UO-31 24.3 µM | A549 43.4 µM | T47D 22.5 µM | OVCAR-5 76 µM | HOP-92 13.6 µM | UACC-62 50.7 µM

NC1=NC(=O)[C@H](Cc2c[nH]c3ccccc23)N1C(=O)OCc1ccccc1
inactive: BT-549 38.5 µM | COLO 205 > 100 µM | NCI-H522 37 µM | HOP-62 > 100 µM | MOLT-4 28.7 µM | SN12C 91 µM | SF-268 73.8 µM | EKVX 45.3 µM | HCT-116 57.9 µM | UO-31 38.1 µM | OVCAR-5 > 100 µM | NCI/ADR-RES > 100 µM | UACC-62 53.8 µM

C/C(=N\NC(=O)c1ccncc1)c1ccccc1F
inactive: CCRF-CEM > 10 µM | COLO 205 > 10 µM | HOP-62 > 10 µM | MOLT-4 > 10 µM | SN12C > 10 µM | SF-268 > 10 µM | HCT-116 > 10 µM | UO-31 > 10 µM | A549 > 10 µM | T47D > 10 µM | OVCAR-5 > 10 µM | HOP-92 2.37 µM | NCI/ADR-RES > 10 µM
